Laboratory results from PMC12040169 (PLOS Biology, 2025).

Experiment: in vitro
Conditions: human, hela cells, % viability

Row | Structure (SMILES) | viability at 28.5 h, 10 µM [%]
1 | Cc1c(-c2ccc(N(C)C)nc2)c(C(F)(F)F)nn1C [CBK307320] | 83.5
2 | O=C(NCCc1c[nH]cn1)N1CCCN(Cc2ccc(F)cc2)CC1 [CBK307323] | 111
3 | Cc1ccc(C(=O)N(C)Cc2cc(-c3ccncc3)no2)c(=O)n1C [CBK307324] | 83.7
4 | Cc1cc(-c2cn3cc(C(=O)N4CCNCC4)nc3c(=O)n2C)c(C)o1 [CBK307325] | 108
5 | CCn1c(C2CCN(C(=O)CCCn3cncn3)CC2)nn(C)c1=O [CBK307326] | 92.4
6 | Cn1c(N2CC[C@H](O)C2)nc2cc(C(=O)NCCn3cccn3)ccc21 [CBK307328] | 111
7 | CCn1ncc(CN(C)C(=O)CCC2CCCCN2C)c1C (stereo not shown) [CBK307329] | 116
8 | CCN(C(=O)c1cn2c3c(cccc3c1=O)CC2)C1CCOC(C)(C)C1 (stereo not shown) [CBK307332] | 90.1
9 | Cc1cc(C)c(C)c(S(=O)(=O)NCCN2CCCCC2CO)c1C (stereo not shown) [CBK307333] | 90.4
10 | Cc1nnnn1CC(=O)Nc1nn(C)c2cccc(N3CCOCC3)c12 [CBK307335] | 97
11 | COCc1nc(NCCCn2c(C)cccc2=O)cc([C@H]2C[C@H](N)C2)n1 [CBK307337] | 103
12 | CSc1ncc(C(=O)N2CCC(N3CCCC(CO)C3)CC2)c(=O)[nH]1 (stereo not shown) [CBK307338] | 90.3
13 | Cc1cccn2c(CN3CCCC(O)C3)c(C(=O)N3CCCCC3)nc12 (stereo not shown) [CBK307342] | 94
14 | COc1nc2ccn(CCC3CCOC3)c(=O)c2cc1C#N (stereo not shown) [CBK307343] | 101
15 | Cn1cc(CN(C(=O)c2nc(N)nc3c2CCCC3)C2CC2)cn1 [CBK307352] | 90.1
16 | Cc1nc(N)nc(NCCC2CCCOC2)c1Cl (stereo not shown) [CBK307353] | 97.1
17 | CCCSCC(=O)Nc1nn(C)c2cccc(N3CCOCC3)c12 [CBK307354] | 105
18 | CCOC(=O)N1CCN(Cc2ccc(OCC3CCCNC3)cc2)CC1 (stereo not shown) [CBK307355] | 73.8
19 | COc1cccc(CN2CCCC(NC(=O)NCc3cccs3)C2)c1 (stereo not shown) [CBK307357] | 73.3
20 | Cc1cccc(OCC2CCCN(C(=O)NCCc3cnn(C)c3)C2)c1 (stereo not shown) [CBK307358] | 96.9
21 | COCCN(Cc1cnn(C)c1)Cc1cc(O)c2cc(F)ccc2n1 [CBK307359] | 103
22 | CCCCN(Cc1ccc(C)s1)C(=O)C1CCc2nn(C)c(=O)n2C1 (stereo not shown) [CBK307360] | 94.6
23 | COc1ccc(OCCCN)c(C(=O)N2CCc3nc[nH]c(=O)c3C2)c1 [CBK307361] | 97.2

Row | Structure (SMILES) | viability at 28.5 h, 10 µM [%]
24 | Cn1ncc2c(NCCCC3CCOC3)nc(C(C)(C)C)nc21 (stereo not shown) [CBK307363] | 113
25 | Cc1cccc(=O)n1CCCn1cc(C2CCOC2)nn1 (stereo not shown) [CBK307368] | 100
26 | CC1(C)Cc2nc(N3CCOCC3)ncc2C(NC(=O)c2cccs2)C1 (stereo not shown) [CBK307369] | 92.7
27 | O=C(CSc1nc(-c2cccs2)cc(C(F)(F)F)n1)N1CCSCC1 [CBK307371] | 107
28 | CN1CCN(C(=O)CSc2nc(-c3cccs3)cc(C(F)(F)F)n2)CC1 [CBK307372] | 92.3
29 | N#CCCCN1C(=O)C(O)(CC(=O)c2ccccn2)c2ccccc21 (stereo not shown) [CBK307373] | 121
30 | CSC(C)CCN1CCn2nc(CNc3cnccn3)cc2C1 (stereo not shown) [CBK307376] | 95.5
31 | CCOCCn1nc(C)cc1C(=O)NC(CC)c1cn2cccnc2n1 (stereo not shown) [CBK307377] | 79
32 | COc1ccc(Cc2nc(C3CCC3)n(CC3COCCO3)n2)cc1 (stereo not shown) [CBK307378] | 87.8
33 | Cc1coc(C)c1C(=O)CC1(O)C(=O)N(CCCC#N)c2ccccc21 (stereo not shown) [CBK307383] | 86
34 | CC(=O)Nc1nnc(SCC(=O)N2CCN(c3ccc(Cl)cc3)CC2)s1 [CBK307384] | 86.6
35 | Cn1cnnc1SCCNC(=O)N1CCc2sccc2C1 [CBK307385] | 97.3
36 | COCCN(C(=O)c1[nH]c2c(F)cccc2c1C)C1CCN(C)CC1 [CBK307386] | 95
37 | COCc1cn(C2CCN(c3cc(-n4cc(C)cn4)ncn3)CC2)nn1 [CBK307388] | 92.9
38 | Cc1cnc2c(Cl)c(C(=O)NCC(F)(F)F)nn2c1 [CBK307391] | 93.1
39 | Nc1nc(C2CC(O)C2)cc(N2CCC(Oc3ccccc3Cl)CC2)n1 (stereo not shown) [CBK307392] | 93.2
40 | CN(Cc1nccn1C)c1nccc(N2CCN[C@H]3CS(=O)(=O)C[C@H]32)n1 [CBK307394] | 84.8
41 | CCCCn1nc(Cn2cncn2)nc1CC1NC(=O)c2ccccc21 (stereo not shown) [CBK307395] | 108
42 | OCC1(CNc2ncc(F)c(N3CCCC3)n2)CCCC1 [CBK307397] | 103
43 | CCC(=O)N1CCCCC(NS(=O)(=O)c2ccc(-n3cccn3)cc2)C1 (stereo not shown) [CBK307398] | 82.5
44 | Cc1cccc(=O)n1CCCn1cc(-c2ncc[nH]2)nn1 [CBK307401] | 90.7
45 | CC(=O)NCC1CCC2(CCN(c3nc(C)nc(C)c3C)CC2)O1 (stereo not shown) [CBK307404] | 94.1
46 | C1=C(CN2CCn3nc(CNc4cnccn4)cc3C2)CCCC1 [CBK307406] | 86.1

Row | Structure (SMILES) | viability at 28.5 h, 10 µM [%]
47 | CC1(C)Cc2nc(N3CCOCC3)ncc2C(NC(=O)c2cn[nH]c2)C1 (stereo not shown) [CBK307409] | 106
48 | COCCN1CCn2c(nc3cc(NC(=O)c4ccccc4)ccc32)C1 [CBK307410] | 89.4
49 | COCCN1CCn2c(nc3cc(NC(=O)C4CCCCC4)ccc32)C1 [CBK307411] | 112
50 | COC(=O)Nc1sc2c(c1C(=O)N1CCOCC1)CCC(C)C2 (stereo not shown) [CBK307413] | 95
51 | O=C(NC1CCCc2nc(N3CCC(CO)CC3)ncc21)C1CCCC1 (stereo not shown) [CBK307415] | 87.4
52 | CCc1nccn1CCN1CCCC(COc2ccccc2F)C1 (stereo not shown) [CBK307416] | 93.4
53 | COCC(C)NC(=O)c1cnn2c(C(F)(F)F)cc(-c3cccs3)nc12 (stereo not shown) [CBK307417] | 104
54 | CCc1cc(C(=O)Nc2nn(C)c3cccc(N4CCOCC4)c23)cs1 [CBK307419] | 110
55 | CO[C@H]1CNC[C@@H]1NC(=O)c1cccc2c1NCCC2 [CBK307421] | 115
56 | O=c1[nH]c(NCc2ccccc2)nc2c1CCCC2 [CBK307423] | 89.9
57 | CCC(=O)Nc1ccc(C(=O)N2CCN(c3ccccc3)CC2)cc1 [CBK307425] | 105
58 | Cn1cc(C(NC(=O)c2cn3ccsc3n2)C2CC(O)C2)cn1 (stereo not shown) [CBK307428] | 110
59 | CCCCc1nccc(-c2ccc(OCC)c(C(=O)O)c2)n1 [CBK307429] | 82.8
60 | CC(=O)NC1CCN(c2nc(C(C)(C)C)nc3c2cnn3C)CC1 [CBK307431] | 101
61 | CN1CCC(N(C)C(=O)c2ccc(-c3ccccc3CO)cc2)C1 (stereo not shown) [CBK307432] | 103
62 | Cn1c(N2CC[C@H](O)C2)nc2cc(C(=O)NC[C@@H]3CCCO3)ccc21 [CBK307433] | 109
63 | CC1(Cn2ccnc2-c2ccccc2C(=O)O)CCCO1 (stereo not shown) [CBK307439] | 88.8
64 | CN(C)C(=O)c1cn2cc(-c3cccs3)n(CC3CC3)c(=O)c2n1 [CBK307440] | 91.4
65 | Cc1cc(-n2cccn2)ccc1CN1CCCCC1CN1CCOCC1 (stereo not shown) [CBK307442] | 83.2
66 | CC(C)c1nc(CCN(C)C(=O)NCc2cc(-c3ccco3)on2)no1 [CBK307443] | 97.8
67 | CNc1nc(Cn2ncc(N3CCCN(C)CC3)cc2=O)cs1 [CBK307446] | 92.8
68 | COCCc1nc(C2CCN(C)CC2)n(Cc2ccccc2C)n1 [CBK307449] | 115
69 | CCCNC(=O)c1ccc(C)c(NC(=O)N[C@@H]2C[C@@H](CO)N(C)C2)c1 [CBK307451] | 92.9

Row | Structure (SMILES) | viability at 28.5 h, 10 µM [%]
70 | Cc1nc(O)cc(C2CCN(C(=O)c3scc4c3CCCC4)CC2)n1 [CBK307452] | 85.9
71 | OC(c1cccs1)C1CCN(Cc2ccc(Cn3cccn3)cc2)CC1 (stereo not shown) [CBK307454] | 83.6
72 | CC(=O)Nc1cccc(C(=O)NC2CC(=O)N(C3CCCCCC3)C2)c1 (stereo not shown) [CBK307455] | 102
73 | Cc1n[nH]c2c1CN(Cc1nc(C)c(C)n1C)CC2 [CBK307456] | 84.7
74 | COCCn1c(CO)nnc1[C@H]1C[C@@H](NC(=O)c2ncc(F)cc2F)C1 [CBK307458] | 106
75 | CCCn1ccnc1CNc1nc(C)nc2c1c(C)nn2C [CBK307459] | 85
76 | Cn1ccnc1CN1CCCC(CCC(=O)Nc2ccccc2F)C1 (stereo not shown) [CBK307462] | 92.1
77 | O=C(NC(c1ccc2c(c1)CCO2)C1CC(O)C1)c1cccc(=O)[nH]1 (stereo not shown) [CBK307463] | 86.2
78 | COCCC1CN(c2nc(N(C)C)nc3c2CCN(C(C)=O)C3)CCO1 (stereo not shown) [CBK307464] | 82.2
79 | Cc1ccccc1N1CCC(CNC(=O)CCn2nc(C)c(C)c2C)C1 (stereo not shown) [CBK307465] | 87.7
80 | CSc1nnc(CC2CCN(C(=O)c3cc(C)c(C)cc3C)CC2)n1C [CBK307467] | 99
81 | CC(=O)N1CCOC(CNc2nc(C(C)(C)C)nc3c2cnn3C)C1 (stereo not shown) [CBK307469] | 89.4
82 | CC(=O)c1cc(CN(C)C(C)c2ccncn2)cs1 (stereo not shown) [CBK307470] | 85.5
83 | Cn1c(N2CC[C@H](O)C2)nc2cc(C(=O)NCc3ccsc3)ccc21 [CBK307471] | 87.5
84 | Cc1cnc2c(Cl)c(C(=O)N3CCC4(CCCNC4)C3)nn2c1 (stereo not shown) [CBK307472] | 116
85 | O=C(NCc1csc2c1CCCC2)N1CCC(CO)CC1 [CBK307476] | 98.9
86 | Cn1ccnc1CNC(=O)N1CCCC(C(=O)c2cccc(Cl)c2)C1 (stereo not shown) [CBK307479] | 105
87 | O=c1cc(N2CCCCC2)cnn1Cc1nccn1C1CC1 [CBK307484] | 89.6
88 | Cn1cnnc1SCCNC(=O)N1CCCN(Cc2cccs2)CC1 [CBK307485] | 94
89 | O=C(c1ccc2c(c1)CCCO2)N(Cc1ccccn1)CC1CCCO1 (stereo not shown) [CBK307488] | 84.9
90 | CN(C)Cc1nc(C(=O)N2CCn3nc(C(O)C4CC4)cc3C2)cs1 (stereo not shown) [CBK307489] | 101
91 | Cn1nnc2cc(NC(=O)NCc3csc(N4CCOCC4)n3)ccc21 [CBK307492] | 94.2
